Experimental data reported in patent US11866430B2, “Naphthyridinone compounds useful as T cell activators” (priority 2018, dated 2024).

What was measured:
human DGKζ = human DGKζ (Homo sapiens (Human), UniProt Q13574); assay: DGKζ assay (detergent/lipid micelle substrate); format: biochemical; details: detergent/lipid micelle substrate; read-out: DGKζ IC50
In short: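 Full-length human DGKζ (and DGKα), C-terminal His-tagged, Sf9-expressed, with phosphatidylserine/DAG micelles in 50 mM octyl glucoside; buffer 50 mM MOPS pH 7.5, 100 mM NaCl, 10 mM MgCl2, 1 μM CaCl2, 1 mM DTT.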

[1] = system: OT-1 antigen-specific CD8+ T cells with MC38 tumor cells; assay: Murine Cytotoxic T Lymphocyte Assay (IFN-γ); format: cell-based, mouse; details: Mus musculus, MC-38, read-out: msCTL INF-γ IC50, murine CTL IFN-γ (table title reads INF-γ Whole Blood Normalized Agonist EC50)
human DGKα = human DGKα (Homo sapiens (Human), UniProt P23743); assay: DGKα LIPGLO assay (extruded liposome substrate); format: biochemical
In short: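 Human full-length DGKα, His-tagged and produced in Sf9 cells, assayed at 20 nM (4× stock) on extruded liposomes of PS, 0.25 mM DAG and 2.75 mM PC, preincubated 10 min. Reaction started with 300 μM ATP (stock) and ran 1 h in MOPS pH 7.5/MgCl2/CaCl2/DTT buffer.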

human DGKα, sequence (P23743 other isoform, or with tags, fused parts or gaps): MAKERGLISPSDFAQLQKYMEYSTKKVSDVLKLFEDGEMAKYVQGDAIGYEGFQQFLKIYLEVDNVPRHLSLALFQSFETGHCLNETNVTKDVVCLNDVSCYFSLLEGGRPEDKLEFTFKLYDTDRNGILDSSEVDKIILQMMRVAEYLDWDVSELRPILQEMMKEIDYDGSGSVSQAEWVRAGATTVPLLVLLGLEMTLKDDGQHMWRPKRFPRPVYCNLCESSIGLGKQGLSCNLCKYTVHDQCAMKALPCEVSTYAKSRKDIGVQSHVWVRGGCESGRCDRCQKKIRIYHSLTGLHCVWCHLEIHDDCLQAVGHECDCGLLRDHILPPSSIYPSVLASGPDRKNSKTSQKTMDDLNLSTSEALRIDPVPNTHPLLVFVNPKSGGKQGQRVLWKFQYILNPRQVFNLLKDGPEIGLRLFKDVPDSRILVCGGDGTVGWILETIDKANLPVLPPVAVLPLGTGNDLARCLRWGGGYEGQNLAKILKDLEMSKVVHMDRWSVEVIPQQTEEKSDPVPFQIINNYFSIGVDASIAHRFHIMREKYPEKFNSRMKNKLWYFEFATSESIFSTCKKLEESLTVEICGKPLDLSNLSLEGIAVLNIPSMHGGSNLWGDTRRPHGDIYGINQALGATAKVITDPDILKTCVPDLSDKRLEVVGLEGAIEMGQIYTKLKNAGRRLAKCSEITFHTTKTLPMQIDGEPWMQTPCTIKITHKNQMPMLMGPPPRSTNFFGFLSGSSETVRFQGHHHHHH
human DGKζ, sequence (Q13574 other isoform, or with tags, fused parts or gaps): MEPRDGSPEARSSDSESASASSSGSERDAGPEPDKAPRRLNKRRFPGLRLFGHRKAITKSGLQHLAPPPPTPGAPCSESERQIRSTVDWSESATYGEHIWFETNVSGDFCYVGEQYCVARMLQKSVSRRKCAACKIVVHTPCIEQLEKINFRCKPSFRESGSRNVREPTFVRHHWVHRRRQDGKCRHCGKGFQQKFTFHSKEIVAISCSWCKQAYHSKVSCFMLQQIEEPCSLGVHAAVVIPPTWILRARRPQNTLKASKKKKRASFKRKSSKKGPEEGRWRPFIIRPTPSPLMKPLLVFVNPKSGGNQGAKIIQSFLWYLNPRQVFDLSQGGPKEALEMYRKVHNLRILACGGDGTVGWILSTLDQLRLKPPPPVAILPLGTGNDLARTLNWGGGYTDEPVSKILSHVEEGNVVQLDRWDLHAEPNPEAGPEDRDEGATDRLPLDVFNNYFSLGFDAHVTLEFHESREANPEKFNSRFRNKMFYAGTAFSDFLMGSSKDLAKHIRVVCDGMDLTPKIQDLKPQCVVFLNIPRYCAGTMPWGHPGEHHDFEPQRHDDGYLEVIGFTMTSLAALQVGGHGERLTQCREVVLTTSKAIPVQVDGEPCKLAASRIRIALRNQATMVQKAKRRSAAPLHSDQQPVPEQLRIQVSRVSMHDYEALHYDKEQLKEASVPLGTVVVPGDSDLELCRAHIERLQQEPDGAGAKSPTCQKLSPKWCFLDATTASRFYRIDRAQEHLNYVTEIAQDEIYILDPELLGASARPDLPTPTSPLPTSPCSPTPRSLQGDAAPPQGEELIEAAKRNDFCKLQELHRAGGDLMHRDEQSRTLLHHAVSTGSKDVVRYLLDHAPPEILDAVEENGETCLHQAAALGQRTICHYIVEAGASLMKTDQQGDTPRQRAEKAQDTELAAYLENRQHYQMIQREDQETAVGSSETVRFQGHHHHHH

Row | SMILES | IC50 (human DGKζ) | IC50 [1] | IC50 (human DGKα)
1 | C#CCn1c(=O)c([N+](=O)[O-])c(N2CCN(C(c3ccc(F)cc3)C3CC3)CC2)c2nc(C#N)ccc21 (single isomer, unassigned) [Example 143, 8-(4-(cyclopropyl(4-fluorophenyl)methyl)piperazin-1-yl)-7-nitro-6-oxo-5-(prop-2-yn-1-yl)-5,6-dihydro-1,5-naphthyridine-2-carbonitrile] | 4.2 µM | 1.41 µM | 3.4 µM
2 | Cn1c(=O)c([N+](=O)[O-])c(N2CCN(CC(O)c3ccc(F)cc3)CC2)c2nc(C#N)ccc21 (stereo not drawn) [Example 36, 8-{4-[2-(4-fluorophenyl)-2-hydroxyethyl]piperazin-1-yl}-5-methyl-7-nitro-6-oxo-5,6-dihydro-1,5-naphthyridine-2-carbonitrile] | 68 µM | 10 µM | 6.8 µM
3 | Cc1ccc2c(n1)c(N1CCN(C(C)c3ccc(F)cc3)CC1)c(Br)c(=O)n2C (stereo not drawn) [Example 224, 3-bromo-4-(4-(1-(4-fluorophenyl)ethyl)piperazin-1-yl)-1,6-dimethyl-1,5-naphthyridin-2(1H)-one] | > 240 µM | 10 µM | 0.14 µM
4 | Cc1ccc(CN2CCN(c3c(C#N)c(=O)n(C)c4ccc(Br)nc34)CC2)c(O)c1 [Example 372, 6-bromo-4-{4-[(2-hydroxy-4-methylphenyl)methyl]piperazin-1-yl}-1-methyl-2-oxo-1,2-dihydro-1,5-naphthyridine-3-carbonitrile] | 60 µM | 2.55 µM | 0.078 µM
5 | Cc1ccc(CN2CCN(c3c(C#N)c(=O)n(C)c4ccc(Cl)nc34)CC2)cc1 [Example 386, 6-chloro-1-methyl-4-{4-[(4-methylphenyl)methyl]piperazin-1-yl}-2-oxo-1,2-dihydro-1,5-naphthyridine-3-carbonitrile] | 190 µM | 0.59 µM | 0.26 µM
6 | Cc1ccc2c(n1)c(N1CCN(Cc3cccc(Cl)c3O)CC1)c(C#N)c(=O)n2C [Example 389, 4-{4-[(3-chloro-2-hydroxyphenyl)methyl]piperazin-1-yl}-1,6-dimethyl-2-oxo-1,2-dihydro-1,5-naphthyridine-3-carbonitrile] | 130 µM | 5.05 µM | 1.4 µM
7 | Cc1cccc(CN2CCN(c3c(C#N)c(=O)n(C)c4ccc(Cl)nc34)CC2)c1O [Example 391, 6-chloro-4-{4-[(2-hydroxy-3-methylphenyl)methyl]piperazin-1-yl}-1-methyl-2-oxo-1,2-dihydro-1,5-naphthyridine-3-carbonitrile] | 36 µM | 0.73 µM | 1.8 µM
8 | Cn1c(=O)c(C#N)c(N2CCN(Cc3cccc4ccccc34)CC2)c2nc(C#N)ccc21 [Example 404, 5-methyl-8-{4-[(naphthalen-1-yl)methyl]piperazin-1-yl}-6-oxo-5,6-dihydro-1,5-naphthyridine-2,7-dicarbonitrile] | 63 µM | 9.84 µM | 4.9 µM
9 | Cc1ccc(CN2CCN(c3c(C#N)c(=O)n(C)c4ccc(Cl)nc34)CC2)c(F)c1 [Example 423, 6-chloro-4-{4-[(2-fluoro-4-methylphenyl)methyl]piperazin-1-yl}-1-methyl-2-oxo-1,2-dihydro-1,5-naphthyridine-3-carbonitrile] | > 81 µM | 0.7 µM | 2.2 µM
10 | COc1cc(C#N)ccc1CN1CCN(c2c(C#N)c(=O)n(C)c3ccc(Cl)nc23)CC1 [Example 424, 6-chloro-4-{4-[(4-cyano-2-methoxyphenyl)methyl]piperazin-1-yl}-1-methyl-2-oxo-1,2-dihydro-1,5-naphthyridine-3-carbonitrile] | > 240 µM | 10 µM | 1.4 µM
11 | Cn1c(=O)c(C#N)c(N2CCN(C(C)(C)c3ccc(F)cc3)CC2)c2nc(Cl)ccc21 [Example 425, 6-chloro-4-{4-[2-(4-fluorophenyl)propan-2-yl]piperazin-1-yl}-1-methyl-2-oxo-1,2-dihydro-1,5-naphthyridine-3-carbonitrile] | > 240 µM | 2.98 µM | 20 µM
